What was measured:
[1] = biological target: recombinant protein KIF18A (kinesin domain: aa 1-467) (Homo sapiens (Human), UniProt Q8NI77); assay: Assay on inhibition of KIF18A enzymatic activity (ADP-Glo); format: biochemical; conditions: KIF18A 80 nM, ATP 80 μM, 3 h at room temperature, ADP-Glo luminescence; read-out: IC50 (μM), inhibitory effects of compounds on KIF18A enzymatic activity
Source text: The recombinant protein KIF18A (kinesin domain: aa 1-467) used in this assay was expressed by the Bac-to-Bac baculovirus expression system from Invitrogen, and the resulting protein was purified for use in this assay (Seki, M. et al. 2003 Nucleic Acids Res.). Quantitative detection of KIF18A enzymatic activity was completed using an ADP-Glo™ kinase assay kit (Promega Inc). Related procedures strictly followed the product instructions, which are briefly described as follows:
The reaction system consisted of a test compound, the recombinant protein KIF18A (aa 1-467), ATP (Promega Inc), and an assay buffer. The test compound was prepared into a 0.5 mM stock solution using DMSO (Sigma Inc) and then serially diluted in DMSO. The assay buffer consisted of an aqueous solution of 15 mM Tris, 10 mM MgCl2 (Sigma Inc), 0.01% Pluronic F-68 (Life Technologies Inc), 1 μM paclitaxel (Cytoskeleton Inc), 30 μg/mL porcine tubulin (Cytoskeleton Inc), and 2% DMSO. The KIF18A protein (final concentration: 80 nM) and the compound at different concentrations (1 μL) were added to the prepared assay buffer (50 μL), and the mixture was incubated at room temperature for 15 min. Then, ATP (final concentration: 80 μM) was added to the reaction mixture, and the resulting mixture was incubated at room temperature for 3 h. After the reaction was completed, 5 μL of the ADP-Glo™ reagent and 2.5 μL of the reaction mixture were added to a 384-well plate (Grenier Inc). The resulting mixture was mixed homogeneously, then sealed by an aluminum foil sealing film, and incubated at room temperature in the dark for 40 min. Finally, 10 μL of the […] was added to each reaction well, and the mixture was incubated at room temperature in the dark for 40 min. After all reactions were completed, the luminescence values of the wells were read on a microplate reader (Molecular Device_SpectraMax Id5), and the inhibition ratios were calculated. The calculation formula for the inhibition rates was as follows: inhibition rate=(1−(compound group−blank group)/(negative control group−blank group))×100%. Then, based on the inhibition rates at different compound concentrations, the IC50 value of the test compound was calculated using the GraphPad Prism 8 software.

NIH:OVCAR-3 cells = assay: Assay on inhibition of OVCAR3 tumor cell proliferation (CellTiter-Glo); format: cell-based; conditions: Homo sapiens, OVCAR-3, 72 h, 3 days of drug treatment, read-out: IC50 (μM), inhibitory effects of compounds on tumor cell proliferation
Experimental: NIH:OVCAR-3 cells (ATCC, Cat No. HTB-161, purchased from Co-Bier) were seeded into a T75 culture flask and cultured in an RPMI 1640 medium containing 20% FBS for 3 days in preparation for subsequent culturing and seeding into a 96-well plate for the cell proliferation assay.
The OVCAR3 cells were seeded at a density of 3000 cells/100 μL/well into the 96-well cell plate, and then the plate was incubated in an incubator (37° C., 5% CO2) for 18 h. On the second day, drug treatment was started. Serially diluted test compound solutions (each drug starting at a concentration of 10 μM, diluted in DMSO, with a dilution ratio of 1:3, and nine gradient points for each drug) or DMSO (negative control) was added to the medium in the plate at 100 μL/well, and a blank group was set up with only medium, but no seeded cell strains. After the drug addition, the plate was incubated in the incubator for another 3 days (37° C., 5% CO2). On the fourth day, plate detection was performed. To each well, 100 μL of CellTiter-Glo reagent (Promega G9243) was added. The plate was shaken for 5 min and then left to stand at room temperature for 5 min. The chemical luminescence signal value of each well was determined using a microplate reader (PerkinElmer EnVision®2104). Cell proliferation inhibition rate=(1−(compound group−blank group)/(DMSO group−blank group))×100%. Then, the IC50 value of each compound was calculated using the GraphPad Prism 8 software.

Sequence of recombinant protein KIF18A (kinesin domain: aa 1-467) (Q8NI77 1-467): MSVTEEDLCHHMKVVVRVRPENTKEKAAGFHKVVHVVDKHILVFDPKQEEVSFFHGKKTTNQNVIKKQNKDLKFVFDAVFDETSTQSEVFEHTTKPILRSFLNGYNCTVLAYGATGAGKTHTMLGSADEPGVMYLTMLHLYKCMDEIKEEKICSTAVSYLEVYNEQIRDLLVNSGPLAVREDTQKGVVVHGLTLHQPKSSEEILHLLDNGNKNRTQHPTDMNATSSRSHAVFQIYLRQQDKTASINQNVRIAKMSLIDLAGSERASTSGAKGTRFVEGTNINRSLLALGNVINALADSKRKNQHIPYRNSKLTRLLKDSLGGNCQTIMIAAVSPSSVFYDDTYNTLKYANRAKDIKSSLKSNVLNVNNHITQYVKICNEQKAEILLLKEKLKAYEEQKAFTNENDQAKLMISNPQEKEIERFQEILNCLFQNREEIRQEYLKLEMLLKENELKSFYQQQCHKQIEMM
Sequence of recombinant protein KIF18A (kinesin domain: aa 1-467) (P02550 whole entry partner, the tested form may be a part): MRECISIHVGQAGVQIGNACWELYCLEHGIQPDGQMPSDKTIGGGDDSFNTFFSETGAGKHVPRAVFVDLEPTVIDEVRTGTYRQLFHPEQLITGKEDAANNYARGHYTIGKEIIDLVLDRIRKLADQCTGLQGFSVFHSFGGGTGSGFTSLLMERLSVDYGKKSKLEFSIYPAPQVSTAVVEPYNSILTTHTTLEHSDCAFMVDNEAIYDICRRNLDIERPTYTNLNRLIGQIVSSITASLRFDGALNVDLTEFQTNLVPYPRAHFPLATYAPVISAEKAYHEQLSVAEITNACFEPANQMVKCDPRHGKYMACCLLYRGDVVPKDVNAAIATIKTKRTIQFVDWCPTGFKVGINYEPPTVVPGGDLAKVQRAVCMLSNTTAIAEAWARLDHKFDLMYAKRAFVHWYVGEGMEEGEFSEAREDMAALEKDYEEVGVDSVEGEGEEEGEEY
Sequence of recombinant protein KIF18A (kinesin domain: aa 1-467) (P02554 whole entry partner, the tested form may be a part): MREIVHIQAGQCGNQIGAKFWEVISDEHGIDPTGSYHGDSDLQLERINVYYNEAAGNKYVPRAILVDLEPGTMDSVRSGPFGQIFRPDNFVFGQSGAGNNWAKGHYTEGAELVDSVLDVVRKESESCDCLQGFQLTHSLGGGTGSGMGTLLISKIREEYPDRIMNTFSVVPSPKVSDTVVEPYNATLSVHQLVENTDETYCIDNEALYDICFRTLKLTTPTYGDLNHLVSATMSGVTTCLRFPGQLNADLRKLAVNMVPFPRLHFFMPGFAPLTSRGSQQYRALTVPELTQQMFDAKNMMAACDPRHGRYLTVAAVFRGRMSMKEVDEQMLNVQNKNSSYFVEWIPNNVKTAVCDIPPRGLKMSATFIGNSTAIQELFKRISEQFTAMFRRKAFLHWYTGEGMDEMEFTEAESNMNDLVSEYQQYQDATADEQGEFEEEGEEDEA

Row | SMILES | IC50 [1] [µM] | IC50 (NIH:OVCAR-3 cells) [µM]
1 | Cc1cc(-c2cnn(-c3ccc(NS(=O)(=O)[C@H](C)CO)cc3N3CCC4(CC3)CC4)c2)nc(N2CCC(F)(F)CC2)n1 [Example I-111, (R)—N-(4-(4-(2-(4,4-Difluoropiperidin-1-yl)-6-methylpyrimidin-4-yl)-1H-pyrazol-1-yl)-3-(6-azaspiro[2.5]octan-6-yl)phenyl)-1-hydroxypropane-2-sulfonamide] | 0.005 | 0.073
2 | Cc1cc(-c2nnc(-c3ccc(NS(=O)(=O)CCO)cc3N3CCC4(CC3)CC4)s2)nc(OCCC(F)(F)F)n1 [Example I-99, N-(4-(5-(6-Methyl-2-(3,3,3-trifluoropropoxy)pyrimidin-4-yl)-1,3,4-thiadiazol-2-yl)-3-(6-azaspiro[2.5]octan-6-yl)phenyl)-2-hydroxyethane-1-sulfonamide] |  | 0.205
3 | O=S(=O)(CCO)Nc1ccc(-n2cc(-c3cc(C(F)F)nc(N4CCC(F)(F)CC4)c3)cn2)c(N2CCC3(CC2)CC3)c1 [Example I-107, N-(4-(4-(2-(Difluoromethyl)-6-(4,4-difluoropiperidin-1-yl)pyridin-4-yl)-1H-pyrazol-1-yl)-3-(6-azaspiro[2.5]octan-6-yl)phenyl)-2-hydroxyethane-1-sulfonamide] | 0.008 | 0.213
4 | Cc1cc(-c2cnn(-c3ccc(NS(=O)(=O)CCO)cc3N3CCC4(CC3)CC4)c2)nc(C2CCC(F)(F)CC2)n1 [Example I-110, N-(4-(4-(2-(4,4-Difluorocyclohexyl)-6-methylpyrimidin-4-yl)-1H-pyrazol-1-yl)-3-(6-azaspiro[2.5]octan-6-yl)phenyl)-2-hydroxyethane-1-sulfonamide] | 0.002 | 0.061
5 | Cc1cc(-c2cn(-c3ccc(NS(=O)(=O)CCO)cc3N3CCC4(CC3)CC4)nn2)nc(N2CCC(F)(F)CC2)n1 [Example I-79, N-(4-(4-(2-(4,4-Difluoropiperidin-1-yl)-6-methylpyrimidin-4-yl)-1H-1,2,3-triazol-1-yl)-3-(6-azaspiro[2.5]octan-6-yl)phenyl)-2-hydroxyethane-1-sulfonamide] | 0.004 | 0.038
6 | Cc1cc(-c2cnn(-c3ccc(NS(=O)(=O)CCO)cc3N3CCC4(CC3)CC4)c2)nc(OCCC(F)(F)F)n1 [Example I-115, N-(4-(4-(6-Methyl-2-(3,3,3-trifluoropropoxy)pyrimidin-4-yl)-1H-pyrazol-1-yl)-3-(6-azaspiro[2.5]octan-6-yl)phenyl)-2-hydroxyethane-1-sulfonamide] | 0.005 | 0.167
7 | Cc1cc(-c2nnc(-c3ccc(NS(=O)(=O)CCO)cc3N3CCC4(CC3)CC4)o2)nc(N2CCC(F)(F)CC2)n1 [Example I-2, N-(4-(5-(2-(4,4-Difluoropiperidin-1-yl)-6-methylpyrimidin-4-yl)-1,3,4-oxadiazol-2-yl)-3-(6-azaspiro[2.5]octan-6-yl)phenyl)-2-hydroxyethane-1-sulfonamide] | 0.002 | 0.08
8 | Cc1cc(-n2cc(-c3ccc(NS(=O)(=O)CCO)cc3N3CCC4(CC3)CC4)cn2)nc(N2CCC(F)(F)CC2)n1 [Example I-81, N-(4-(1-(2-(4,4-Difluoropiperidin-1-yl)-6-methylpyrimidin-4-yl)-1H-pyrazol-4-yl)-3-(6-azaspiro[2.5]octan-6-yl)phenyl)-2-hydroxyethane-1-sulfonamide] |  | 0.393
9 | Cc1cc(-c2cnn(-c3ccc(NS(=O)(=O)CCO)cc3N3CCC4(CC3)CC4)c2)nc(N2CCCC(F)(F)C2)n1 [Example I-118, N-(4-(4-(2-(3,3-Difluoropiperidin-1-yl)-6-methylpyrimidin-4-yl)-1H-pyrazol-1-yl)-3-(6-azaspiro[2.5]octan-6-yl)phenyl)-2-hydroxyethane-1-sulfonamide] | 0.002 | 0.184
10 | Cc1cc(-c2nnc(-c3ccc(NS(=O)(=O)CCO)cc3N3CCC4(CC3)CC4)o2)nc(N2CCCC(C(F)(F)F)C2)c1 (centres unmarked) [Example I-103, N-(4-(5-(4-Methyl-6-(3-(trifluoromethyl)piperidin-1-yl)pyridin-2-yl)-1,3,4-oxadiazol-2-yl)-3-(6-azaspiro[2.5]octan-6-yl)phenyl)-2-hydroxyethane-1-sulfonamide] | 0.012 | 
11 | Cc1cc(-c2nnc(-c3ccc(NS(=O)(=O)CCO)cc3N3CCC4(CC3)CC4)o2)nc(N2CCC(C(F)(F)F)C2)n1 (centres unmarked) [Example I-98, N-(4-(5-(6-methyl-2-(3-(trifluoromethyl)pyrrolidin-1-yl)pyrimidin-4-yl)-1,3,4-oxadiazol-2-yl)-3-(6-azaspiro [2.5]octan-6-yl)phenyl)-2-hydroxyethane-sulfonamide] | 0.018 | 
12 | Cc1cc(-c2cnn(-c3ccc(NS(=O)(=O)CCO)cc3N3CCC(C)CC3)c2)nc(N2CCC(F)(F)CC2)n1 [Example I-125, N-(4-(4-(2-(4,4-Difluoropiperidin-1-yl)-6-methylpyrimidin-4-yl)-1H-pyrazol-1-yl)-3-(4-methylpiperidin-1-yl)phenyl)-2-hydroxyethane-1-sulfonamide] | 0.005 | 

Second part, the molecule after the results:

Row | IC50 [1] [µM] | IC50 (NIH:OVCAR-3 cells) [µM] | SMILES
13 | 0.007 | 0.051 | Cc1cc(-c2cnn(-c3ccc(NS(=O)(=O)CCO)cc3N3CCC4(CC3)CC4)c2)nc(N2CC3C(C2)C3(F)F)n1 (centres unmarked) [Example I-113, N-(4-(4-(2-(6,6-Difluoro-3-azabicyclo[3.1.0]hexan-3-yl)-6-methylpyrimidin-4-yl)-1H-pyrazol-1-yl)-3-(6-azaspiro[2.5]octan-6-yl)phenyl)-2-hydroxyethane-1-sulfonamide]
14 | 0.004 | 0.144 | Cc1cc(-c2nnc(-c3ccc(NS(=O)(=O)CCO)cc3N3CCC4(CC3)CC4)o2)nc(N2CCCC(F)C2)n1 (centres unmarked) [Example I-102, N-(4-(5-(2-(3-Fluoropiperidin-1-yl)-6-methylpyrimidin-4-yl)-1,3,4-oxadiazol-2-yl)-3-(6-azaspiro[2.5]octan-6-yl)phenyl)-2-hydroxyethane-1-sulfonamide]
15 | 0.001 | 0.015 | Cc1cc(-c2nnc(-c3ccc(NS(=O)(=O)CCO)cc3N3CCC4(CC3)CC4)o2)nc(N2CC3C(C2)C3(F)F)n1 (centres unmarked) [Example I-88, N-(4-(5-(2-(6,6-Difluoro-3-azabicyclo[3.1.0]hexan-3-yl)-6-methylpyrimidin-4-yl)-1,3,4-oxadiazol-2-yl)-3-(6-azaspiro[2.5]octan-6-yl)phenyl)-2-hydroxyethane-1-sulfonamide]
16 |  | 0.214 | Cc1cc(-c2nnc(-c3ccc(NS(=O)(=O)CCO)cc3N3CCC4(CC3)CC4)o2)c(F)c(N2CCC(F)(F)CC2)n1 [Example I-53]
17 | 0.013 | 0.389 | Cc1cc(-c2cnn(-c3ccc(NS(=O)(=O)CCO)cc3N3CCC4(CC3)CC4)c2)nc(N2CCCC2)n1 [Example I-116, N-(4-(4-(6-Methyl-2-(pyrrolidin-1-yl)pyrimidin-4-yl)-1H-pyrazol-1-yl)-3-(6-azaspiro[2.5]octan-6-yl)phenyl)-2-hydroxyethane-1-sulfonamide]
18 | 0.013 |  | Cc1cc(-c2nnc(-c3ccc(NS(=O)(=O)CCO)cc3N3CCC4(CC3)CC4)o2)nc(N2CCC(C(F)(F)F)C2)c1 (centres unmarked) [Example I-104, N-(4-(5-(4-Methyl-6-(3-(trifluoromethyl)pyrrolidin-1-yl)pyridin-2-yl)-1,3,4-oxadiazol-2-yl)-3-(6-azaspiro[2.5]octan-6-yl)phenyl)-2-hydroxyethane-1-sulfonamide]

Reference: patent publication US20250250264A1, “KIF18A INHIBITOR AND USE THEREOF” (Wuhan Humanwell Innovative Drug Research and Development …, priority 2022, published 2025)
